These are literature values, as cited in US20250381197A1, “Regimen for Treating Amyotrophic Lateral Sclerosis Having Onset 24 Months Prior to Treatment” (Woolsey Pharmaceuticals, Inc., priority 2022, published 2025).

Like-named read-outs stand apart in the source and are kept apart here.

Series [1] relates to ALS patients. As to conditions: 6-month study; ALS onset between 3 and 36 months; 30 mg twice a day; cited from earlier work.
The next series deals with human ALS patients. The following applies: 30 mg intravenously twice daily over 20 consecutive working days; 3 patients; cited from earlier work.
For series [2] the following is noted: 1-hydroxy (M3) metabolite; cited from earlier work.
Series [3] deals with ALS patients. The following applies: cited from earlier work.

Consider `Cl.O=S(=O)(c1cccc2cnccc12)N1CCCNCC1` [Fasudil, Hexahydro-1-(5-isoquinolinesulfonyl)-1H-1,4-diazepine monohydrochloride hemihydrate], for which, in the series with ALS patients [1], the disease modification result is recorded as “did not result in any disease modification”. In addition, in the series with human ALS patients, the “outcome of compassionate use” value is recorded as “no conclusive results beyond safety”.

As to `O=S(=O)(c1cccc2c(O)nccc12)N1CCCNCC1` [M3], the half-life entry in series [2] is “about 8 hours”.

As to `CC1=NN(c2ccccc2)C(=O)C1` [edaravone], the results for the primary endpoint entry with ALS patients [3] (enrollment narrowed to patients diagnosed two years or less (Tanaka 2016a)) and in the series with ALS patients [3] (enrollment of three years or less (Abe 2017)) were “met the primary endpoint” and “did not meet the primary endpoint”, respectively. For the same compound, the “treatment effect between placebo and edaravone” value in the series on ALS patients [3] (severe ALS patients, disease onset of less than three years (Tanaka 2016b)) was “failed to demonstrate any treatment effect”.
